Patent US10844044B2 (Vanderbilt University, priority 2018, dated 2020)
Where two headings read alike, the source gives them in different places.

Columns and labels:
[1] = system: MV4:11 human cancer cell lines; assay: Anti-proliferative activity, CellTiter-Glo viability assay, 7 day protocol; type: cell-based; conditions: MV4:11 cells, 7 day incubation, read-out: GI50 on cellular proliferation of MV4:11 human cancer cell lines
How it was run: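 Luminescent CellTiter-Glo readout after 7-day compound exposure of MV4:11 cells plated at 3600 cells/ml (final DMSO 0.1%). GI50 derived from three biological × three technical replicates, reported as mean ± S.E.M.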

WDR5 = WDR5 (Homo sapiens (Human), UniProt P61964); assay: TR-FRET binding assay (displacement of 10mer-Thr-FAM probe from WDR5); conditions: read-out: Ki for Inhibition of WDR5 by TR-FRET assay
[2] = TR-FRET, 10mer-Thr-FAM probe, WDR5-His tag 2 nM, pH 7.0

| Compound | GI50 ([1]; Homo sapiens, MV4-11, 168 h) [µM] | Ki (WDR5; [2]) [µM] | Ki (WDR5) [µM] | GI50 [1] [µM] |
| --- | --- | --- | --- | --- |
| CCn1ccn(Cc2cc(C(=O)NCc3cc(OC)cc(OC)c3)cc(-c3ccc(F)cc3C)c2)c1=N [Example 116, N-(3,5-Dimethoxybenzyl)-5-((3-ethyl-2-imino-2,3-dihydro-1H-imidazol-1-yl)methyl)-4′-fluoro-2′-methyl-[1,1′-biphenyl]-3-carboxamide] | 0.57 | 0.0004 | – | – |
| COc1cc(CNC(=O)c2cc(Cn3ccoc3=N)cc(-c3ncc(F)cc3C)c2)cc(OC)c1 [Example 238, N-(3,5-Dimethoxybenzyl)-3-(5-fluoro-3-methylpyridin-2-yl)-5-((2-iminooxazol-3(2H)-yl)methyl)benzamide] | 3.8 | – | 0.0029 | – |
| Cc1cc([C@@H](NC(=O)c2cc(Cn3ccn(C)c3=N)cc(-c3cn(C(C)C)nc3C(F)(F)F)c2)C2CC2)ccc1F [Example 193, (S)—N-(Cyclopropyl(4-fluoro-3-methylphenyl)methyl)-3-((2-imino-3-methyl-2,3-dihydro-1H-imidazol-1-yl)methyl)-5-(1-isopropyl-3-(trifluoromethyl)-1H-pyrazol-4-yl)benzamide] | < 0.1 | < 0.0001 | – | – |
| COc1cc(CNC(=O)c2cc(Cn3ccn(C)c3=N)cc(-c3ccc(F)cc3C(F)(F)F)c2F)cc(OC)c1 [Example 108, N-(3,5-Dimethoxybenzyl)-2,4′-difluoro-5-((2-imino-3-methyl-2,3-dihydro-1H-imidazol-1-yl)methyl)-2′-(trifluoromethyl)-[1,1′-biphenyl]-3-carboxamide] | 0.31 | < 0.0001 | – | – |
| Cc1ccnc([C@@H](NC(=O)c2cc(Cn3ccoc3=N)cc(-c3ccc(F)cc3C)c2)C2CC2)c1 [Example 247, (S)—N-(Cyclopropyl(4-methylpyridin-2-yl)methyl)-4′-fluoro-5-((2-iminooxazol-3(2H)-yl)methyl)-2′-methyl-[1,1′-biphenyl]-3-carboxamide] | 0.27 | 0.00014 | – | – |
| COc1cc(CN(C)C(=O)c2cc(Cn3ccn(C)c3=N)cc(-c3c(C)ccc4[nH]ncc34)c2)cc(OC)c1 [Example 34, N-(3,5-Dimethoxybenzyl)-3-((2-imino-3-methyl-2,3-dihydro-1H-imidazol-1-yl)methyl)-N-methyl-5-(5-methyl-1H-indazol-4-yl)benzamide] | 30 | 0.016 | – | – |
| Cn1cc(-c2cc(Cn3ccn(C4CC4)c3=N)cc(C(=O)N[C@H](c3ccc(Cl)c(Cl)c3)C3CC3)c2)c(C(F)(F)F)n1 [Example 159, (S)—N-(cyclopropyl(3,4-dichlorophenyl)methyl)-3-((3-cyclopropyl-2-imino-2,3-dihydro-1H-imidazol-1-yl)methyl)-5-(1-methyl-3-(trifluoromethyl)-1H-pyrazol-4-yl)benzamide] | 0.19 | < 0.0001 | – | – |
| CCn1cc(-c2cc(Cn3ccoc3=N)cc(C(=O)NCc3ccc(F)c(C)c3)c2)c(C(F)(F)F)n1 [Example 294, 3-(1-Ethyl-3-(trifluoromethyl)-1H-pyrazol-4-yl)-N-(4-fluoro-3-methylbenzyl)-5-((2-iminooxazol-3(2H)-yl)methyl)benzamide] | < 0.1 | – | < 0.0001 | – |
| CCn1cc(-c2cc(Cn3ccn(C)c3=N)cc(C(=O)N[C@H](c3ccc(Cl)c(Cl)c3)C3CC3)c2)c(C(F)(F)F)n1 [Example 161, (S)—N-(Cyclopropyl(3,4-dichlorophenyl)methyl)-3-(1-ethyl-3-(trifluoromethyl)-1H-pyrazol-4-yl)-5-((2-imino-3-methyl-2,3-dihydro-1H-imidazol-1-yl)methyl)benzamide] | < 0.1 | – | < 0.0001 | – |
| Cc1cc([C@@H](NC(=O)c2cc(CN3CCCC3=N)cc(-c3cn(C)nc3C(F)(F)F)c2)C2CC2)ccc1F [Example 337, (S)—N-(Cyclopropyl(4-fluoro-3-methylphenyl)methyl)-3-((2-iminopyrrolidin-1-yl)methyl)-5-(1-methyl-3-(trifluoromethyl)-1H-pyrazol-4-yl)benzamide] | < 0.1 | < 0.0001 | – | – |
| CCn1cc(-c2cc(Cn3ccsc3=N)cc(C(=O)N[C@H](c3ccc(F)c(C)c3)C3CC3)c2)c(C(F)(F)F)n1 [Example 320, (S)—N-(Cyclopropyl(4-fluoro-3-methylphenyl)methyl)-3-(1-ethyl-3-(trifluoromethyl)-1H-pyrazol-4-yl)-5-((2-iminothiazol-3(2H)-yl)methyl)benzamide] | < 0.1 | < 0.0001 | – | – |
| COc1cc(OC)cc(C(C)NC(=O)c2cc(Cn3ccn(C)c3=N)cc(-c3ccc(F)cc3C)n2)c1 (stereo not drawn) [Example 355, N-(1-(3,5-Dimethoxyphenyl)ethyl)-6-(4-fluoro-2-methylphenyl)-4-((2-imino-3-methyl-2,3-dihydro-1H-imidazol-1-yl)methyl)picolinamide] | 1.19 | 0.00357 | – | – |
| CCn1cc(-c2cc(CN3CCSC3=N)cc(C(=O)N[C@H](c3ccc(F)c(C)c3)C3CC3)c2)c(C(F)(F)F)n1 [Example 312, (S)—N-(Cyclopropyl (4-fluoro-3-methylphenyl)methyl)-3-(1-ethyl-3-(trifluoromethyl)-1H-pyrazol-4-yl)-5-((2-iminothiazolidin-3-yl)methyl)benzamide] | < 0.1 | < 0.0001 | – | – |
| N—((S)-Cyclopropyl(4-fluoro-3-methylphenyl)methyl)-2-ethoxy-5-((3-fluoro-2-iminopyridin-1(2H)-yl)methyl)-3-(1-methyl-3-(trifluoromethyl)-1,3-dihydro-2λ2-pyrazol-4-yl)benzamide [Example 348] | – | – | < 0.0001 | < 0.1 |
| Cc1cc([C@@H](NC(=O)c2cc(Cn3ccn(C)c3=N)cc(-c3ncc(F)cc3C)c2)C2CC2)ccc1F [Example 66, (S)—N-(Cyclopropyl(4-fluoro-3-methylphenyl)methyl)-3-(5-fluoro-3-methylpyridin-2-yl)-5-((2-imino-3-methyl-2,3-dihydro-1H-imidazol-1-yl)methyl)benzamide] | 0.51 | 0.00012 | – | – |
| CCn1cc(-c2cc(Cn3ccoc3=N)cc(C(=O)N[C@H](c3ccc(F)c(Cl)c3)C3CC3)c2)c(C(F)(F)F)n1 [Example 298, (S)—N-((3-Chloro-4-fluorophenyl)(cyclopropyl)methyl)-3-(1-ethyl-3-(trifluoromethyl)-1H-pyrazol-4-yl)-5-((2-iminooxazol-3(2H)-yl)methyl)benzamide] | < 0.1 | < 0.0001 | – | – |
| Cc1ccnc(C(NC(=O)c2cc(Cn3ccn(C)c3=N)cc(-c3ccc(F)cc3C(F)(F)F)c2F)C2CC2)c1 (stereo not drawn) [Example 105, N-(Cyclopropyl(4-methylpyridin-2-yl)methyl)-2,4′-difluoro-5-((2-imino-3-methyl-2,3-dihydro-1H-imidazol-1-yl)methyl)-2′-(trifluoromethyl)-[1,1′-biphenyl]-3-carboxamide] | 0.4 | < 0.0001 | – | – |
| Cc1cc([C@@H](NC(=O)c2cc(Cn3cccc(C)c3=N)cc(-c3cccnc3C(F)(F)F)c2)C2CC2)ccc1F [Example 343, (S)—N-(Cyclopropyl(4-fluoro-3-methylphenyl)methyl)-3-((2-imino-3-methylpyridin-1(2H)-yl)methyl)-5-(2-(trifluoromethyl)pyridin-3-yl)benzamide] | 0.25 | 0.00051 | – | – |
| Cc1cc([C@@H](NC(=O)c2cc(Cn3ccn(C)c3=N)cc(-c3ccccc3C)c2)C2CC2)ccc1F [Example 201, (S)—N-(Cyclopropyl(4-fluoro-3-methylphenyl)methyl)-5-((2-imino-3-methyl-2,3-dihydro-1H-imidazol-1-yl)methyl)-2′-methyl-[1,1′-biphenyl]-3-carboxamide] | 0.14 | < 0.0001 | – | – |
| CCn1cc(-c2cc(CN3CCOC3=N)cc(C(=O)NCc3ccc(F)c(C)c3)c2)c(C(F)(F)F)n1 [Example 295, 3-(1-Ethyl-3-(trifluoromethyl)-1H-pyrazol-4-yl)-N-(4-fluoro-3-methylbenzyl)-5-((2-iminooxazolidin-3-yl)methyl)benzamide] | < 0.1 | – | < 0.0001 | – |
| Cc1cc([C@@H](NC(=O)c2cc(Cn3ccn(C)c3=N)cc(C(C)C(F)(F)F)c2)C2CC2)ccc1F (stereo partly drawn) [Example 195, N—((S)-Cyclopropyl(4-fluoro-3-methylphenyl)methyl)-3-((2-imino-3-methyl-2,3-dihydro-1H-imidazol-1-yl)methyl)-5-(1,1,1-trifluoropropan-2-yl)benzamide] | 0.94 | < 0.0001 | – | – |
| Cc1cc([C@@H](NC(=O)c2cc(Cn3ccn(C4CC4)c3=N)cc(-c3ccc(F)cc3Cl)c2)C2CC2)ccc1F [Example 141, (S)-2′-Chloro-N-(cyclopropyl(4-fluoro-3-methylphenyl)methyl)-5-((3-cyclopropyl-2-imino-2,3-dihydro-1H-imidazol-1-yl)methyl)-4′-fluoro-[1,1′-biphenyl]-3-carboxamide] | < 0.1 | < 0.0001 | – | – |
| Cc1cc([C@@H](NC(=O)c2cc(CN3CCOC3=N)cc(-c3cc(C(F)(F)F)nn3C)c2)C2CC2)ccc1F [Example 287, (S)—N-(Cyclopropyl(4-fluoro-3-methylphenyl)methyl)-3-((2-iminooxazolidin-3-yl)methyl)-5-(1-methyl-3-(trifluoromethyl)-1H-pyrazol-5-yl)benzamide] | 0.1 | – | < 0.0001 | – |
| Cc1cc([C@@H](NC(=O)c2cc(Cn3ccoc3=N)cc(-c3cccnc3OC(F)F)c2)C2CC2)ccc1F [Example 261, (S)—N-(Cyclopropyl(4-fluoro-3-methylphenyl)methyl)-3-(2-(difluoromethoxy)pyridin-3-yl)-5-((2-iminooxazol-3(2H)-yl)methyl)benzamide] | 0.73 | 0.00028 | – | – |
